# Results as given in patent publication US20250270190A1, “KIT INHIBITORS” (BLUEPRINT MEDICINES CORPORATION, priority 2022, published 2025).
# pIC50: −log10 of the molar value.
# Molecular target: T1, c-kit autophosphorylation (Phospho c-Kit Tyr721) in HMC 1.1 (exon 11/13) cells, V654A (Homo sapiens, UniProt P10721, V560G/V654A)
# T1 construct: endogenous in cells; host or cells: HMC 1.1 (exon 11/13) cells
# Assay: pKIT Meso Scale Discovery (MSD) assay, inhibition of autophosphorylation of KIT, HMC1.1_V654A
# Assay type: cell-based
# Conditions: Table 1, cell line not named for Table 1, b1056 names pKIT HMC1.1_V654A, read-out: Code (IC50 for inhibition of autophosphorylation of KIT, pKIT MSD assay)
# Text: In this MSD assay, specific capture antibodies for the analytes were coated in arrays in each well of a 96-well carbon electrode plate surface. The detection system used SULFO-TAG™ labels that emit light upon electrochemical stimulation initiated at the electrode surfaces of the […] and MULTI-SPOT® plates. The electrical stimulation was decoupled from the output signal, which was light and generated assays with minimal background. The goal of this assay was to assess the percent inhibition of autophosphorylation of c-kit in cells when treated with compounds of the disclosure in a dose-dependent manner.
# HMC1.1 cells were maintained in IMDM media supplemented with 20% Calf Serum with Iron and 100 units/mL Penicillin-Streptomycin and grown in a 37° C. humidified tissue culture incubator. HMC1.1 cells were passaged by 1:5 dilution into fresh IMDM media supplemented with 20% Calf Serum with Iron and 100 units/mL Penicillin-Streptomycin every 5-7 days and were discarded after 20 passages.
# Seeding was performed as follows: HMC cells were brought to 1×10^6 cells/mL in fresh phenol red free, serum-free, iron-free IDM media with Pen/Strep; cells were seeded/plated into respective U-bottom plate by dispensing 50 μL/well (50,000 cells) using the Multidrop, and covered and incubated cells at 37° C. in a humidified tissue culture incubator for 4 hours (starvation).
# Dosing was performed as follows: The compound mother plate was prepared by adding 16 μL of compound to 24 μL of DMSO to row A, odd-numbered columns of screen matrix plate. […] Intermediate plates were prepared in V-bottom plates by dispensing 98 μL of phenol red free, serum free IMDM media with Pen/Strep into all wells. 2 μL DMSO or 2 μL 10 mM staurosporine was added to appropriate control wells. At the end of four hours, the Bravo protocol 10 cpds vertical dose MSD 2 U-plates 96-well was used to: add 2 μL from the compound plate to the intermediate plate and dose cells with 7 μL from the intermediate plate. The cells were covered and incubated at 37° C. in a humidified tissue culture incubator for 90 min. The complete lysis buffer was prepared with AlphaLISA 5× Lysis Buffer supplemented with 1× protease inhibitor cocktail and kept on ice. The cells were pelleted by centrifuging plate at 2500×g for 5 min, 4° C. and media removed. Complete lysis buffer was added (14 μL/well). The cells were covered and shaken at 4° C. on a plate shaker at 600 rpm for 30 min and kept cold
# The MSD protocol was preformed as follows: Tris Wash Buffer (2L) was prepared by diluting 10× stock of Tris Wash Buffer to 1× in water. Blocking Solution was prepared by dissolving 600 mg Blocker A in 20 mL 1× Trish Wash Buffer (per plate). The Antibody Dilution Buffer was prepared by mixing 1 mL Blocking solution and 2 mL 1× Trish Wash Buffer (per plate) and kept on ice. Blocking Solution was added (150 μL/well) to each MSD plate using a multichannel repeater pipette. The plate was covered and incubated at room temperature on a plate shaker at 700 rpm for hr. The Bio Tek protocol RL-96w-wash-MSD_stacker_fromC was used to wash plates 3× with 150 μL/well. Cells were pelleted by centrifuging lysate plates at 2500×g for 5 mins. The Bravo protocol was used (transfer 25 ul supernatants from V-96 to assay plate) to transfer 25 μL sample lysate per well to each MSD plate. The plates were covered and incubated at room temperature on a plate shaker at 700 rpm for hr. The Bio Tek protocol RL-96w-wash-MSD_stacker_fromC was used to wash plates 3× with 150 μL/well. The Detection Antibody Solution was prepared by diluting the 60 μL of the 50× antibody stock in 2.94 mL of the Antibody Dilution Buffer (per plate) and kept on ice. 25 μL/well of detection antibody solution was added to each MSD plate. The plates were covered and incubated at room temperature on a plate shaker at 700 rpm for 1 hr. The Read Buffer was prepared by diluting 5 mL of 4× stock of Read Buffer to 1× in 15 mL water (per plate).
# T1 sequence (P10721 26-976 V560G/V654A): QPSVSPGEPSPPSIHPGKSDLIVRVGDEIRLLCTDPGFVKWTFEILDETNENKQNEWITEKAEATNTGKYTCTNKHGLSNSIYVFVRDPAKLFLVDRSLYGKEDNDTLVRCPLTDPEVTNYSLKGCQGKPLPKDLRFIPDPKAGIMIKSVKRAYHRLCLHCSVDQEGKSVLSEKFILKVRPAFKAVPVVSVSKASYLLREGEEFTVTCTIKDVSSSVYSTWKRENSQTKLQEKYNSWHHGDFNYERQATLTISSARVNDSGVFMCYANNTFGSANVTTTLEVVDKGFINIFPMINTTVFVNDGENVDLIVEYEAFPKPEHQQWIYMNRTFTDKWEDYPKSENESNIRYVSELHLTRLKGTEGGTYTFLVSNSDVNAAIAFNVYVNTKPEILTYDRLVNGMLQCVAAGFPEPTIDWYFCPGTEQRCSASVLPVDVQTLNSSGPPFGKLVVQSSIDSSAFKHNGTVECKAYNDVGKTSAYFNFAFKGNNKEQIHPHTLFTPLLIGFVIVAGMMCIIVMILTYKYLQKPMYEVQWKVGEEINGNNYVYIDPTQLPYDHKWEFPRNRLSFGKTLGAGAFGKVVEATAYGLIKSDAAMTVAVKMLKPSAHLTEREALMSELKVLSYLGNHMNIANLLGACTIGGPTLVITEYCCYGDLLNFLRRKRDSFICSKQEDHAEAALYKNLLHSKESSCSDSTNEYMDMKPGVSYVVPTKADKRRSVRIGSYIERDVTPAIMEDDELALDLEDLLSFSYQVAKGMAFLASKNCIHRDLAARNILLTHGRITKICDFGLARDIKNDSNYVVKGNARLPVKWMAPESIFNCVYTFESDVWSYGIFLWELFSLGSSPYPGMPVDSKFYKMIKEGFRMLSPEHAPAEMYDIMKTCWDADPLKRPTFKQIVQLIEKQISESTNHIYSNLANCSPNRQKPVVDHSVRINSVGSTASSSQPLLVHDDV
row,Molecule,pIC50
1,6-((6-amino-2-(difluoromethyl)pyrimidin-4-yl)amino)-N-methyl-4-((4-methyltetrahydro-2H-pyran-4-yl)amino)nicotinamide [Compound 125],> 8.00
2,"6-((6-amino-4-(difluoromethyl)pyridin-2-yl)amino)-4-(((1R,2S)-2-fluorocyclopropyl)amino)-N-methylnicotinamide [Compound 44]",7.40 to 8.00
3,"6-((6-amino-4-(difluoromethyl)pyridin-2-yl)amino)-4-(((1S,2R)-2-fluorocyclopropyl)amino)-N-methylnicotinamide [Compound 45]",7.40 to 8.00
4,"CNC(=O)c1cnc(Nc2cc(N)nc(CF)n2)cc1NC(C)CF (single isomer, unassigned) [Compound 27, (S)-6-((6-amino-2-(fluoromethyl)pyrimidin-4-yl)amino)-4-((1-fluoropropan-2-yl)amino)-N-methylnicotinamide or (R)-6-((6-amino-2-(fluoromethyl)pyrimidin-4-yl)amino)-4-((1-fluoropropan-2-yl)amino)-N-methylnicotinamide]",7.40 to 8.00
5,"CNC(=O)c1cnc(Nc2cc(N)nc(CF)n2)cc1NC(C)CF (single isomer, unassigned) [Compound 28, (R)-6-((6-amino-2-(fluoromethyl)pyrimidin-4-yl)amino)-4-((1-fluoropropan-2-yl)amino)-N-methylnicotinamide or (S)-6-((6-amino-2-(fluoromethyl)pyrimidin-4-yl)amino)-4-((1-fluoropropan-2-yl)amino)-N-methylnicotinamide]",< 7.40
6,"C[C@@H](CF)Oc1cc(Nc2cc(N)nc(C(F)F)n2)ncc1-c1cnn(C)c1 (single isomer, unassigned) [Compound 87, (S)-2-(difluoromethyl)-N4-(4-((1-fluoropropan-2-yl)oxy)-5-(1-methyl-1H-pyrazol-4-yl)pyridin-2-yl)pyrimidine-4,6-diamine or (R)-2-(difluoromethyl)-N4-(4-((1-fluoropropan-2-yl)oxy)-5-(1-methyl-1H-pyrazol-4-yl)pyridin-2-yl)pyrimidine-4,6-diamine]",> 8.00
7,"C[C@H](CF)Oc1cc(Nc2cc(N)nc(C(F)F)n2)ncc1-c1cnn(C)c1 (single isomer, unassigned) [Compound 88, (R)-2-(difluoromethyl)-N4-(4-((1-fluoropropan-2-yl)oxy)-5-(1-methyl-1H-pyrazol-4-yl)pyridin-2-yl)pyrimidine-4,6-diamine or (S)-2-(difluoromethyl)-N4-(4-((1-fluoropropan-2-yl)oxy)-5-(1-methyl-1H-pyrazol-4-yl)pyridin-2-yl)pyrimidine-4,6-diamine]",> 8.00
8,"COc1cc(Nc2cc(N)nc(C(F)F)n2)ncc1-c1cnn([C@H]2CCNC2)c1 (single isomer, unassigned) [Compound 99, (S)-2-(difluoromethyl)-N4-(4-methoxy-5-(1-(pyrrolidin-3-yl)-1H-pyrazol-4-yl)pyridin-2-yl)pyrimidine-4,6-diamine or (R)-2-(difluoromethyl)-N4-(4-methoxy-5-(1-(pyrrolidin-3-yl)-1H-pyrazol-4-yl)pyridin-2-yl)pyrimidine-4,6-diamine]",7.40 to 8.00
9,"COc1cc(Nc2cc(N)nc(C(F)F)n2)ncc1-c1cnn([C@@H]2CCNC2)c1 (single isomer, unassigned) [Compound 100, (R)-2-(difluoromethyl)-N4-(4-methoxy-5-(1-(pyrrolidin-3-yl)-1H-pyrazol-4-yl)pyridin-2-yl)pyrimidine-4,6-diamine or (S)-2-(difluoromethyl)-N4-(4-methoxy-5-(1-(pyrrolidin-3-yl)-1H-pyrazol-4-yl)pyridin-2-yl)pyrimidine-4,6-diamine]",7.40 to 8.00
10,"COc1cc(Nc2cc(N)nc(C(F)F)n2)ncc1-c1cnn(C[C@H]2CCN2)c1 (single isomer, unassigned) [Compound 101, (R)-N4-(5-(1-(azetidin-2-ylmethyl)-1H-pyrazol-4-yl)-4-methoxypyridin-2-yl)-2-(difluoromethyl)pyrimidine-4,6-diamine or (S)-N4-(5-(1-(azetidin-2-ylmethyl)-1H-pyrazol-4-yl)-4-methoxypyridin-2-yl)-2-(difluoromethyl)pyrimidine-4,6-diamine]",< 7.40
11,"COc1cc(Nc2cc(N)nc(C(F)F)n2)ncc1-c1cnn(C[C@@H]2CCN2)c1 (single isomer, unassigned) [Compound 102, (S)-N4-(5-(1-(azetidin-2-ylmethyl)-1H-pyrazol-4-yl)-4-methoxypyridin-2-yl)-2-(difluoromethyl)pyrimidine-4,6-diamine or (R)-N4-(5-(1-(azetidin-2-ylmethyl)-1H-pyrazol-4-yl)-4-methoxypyridin-2-yl)-2-(difluoromethyl)pyrimidine-4,6-diamine]",> 8.00
12,"COc1cc(Nc2cc(N)nc(C(F)F)n2)ncc1-c1cnn([C@H]2CCOC2)c1 (single isomer, unassigned) [Compound 109, (S)-2-(difluoromethyl)-N4-(4-methoxy-5-(1-(tetrahydrofuran-3-yl)-1H-pyrazol-4-yl)pyridin-2-yl)pyrimidine-4,6-diamine or (R)-2-(difluoromethyl)-N4-(4-methoxy-5-(1-(tetrahydrofuran-3-yl)-1H-pyrazol-4-yl)pyridin-2-yl)pyrimidine-4,6-diamine]",> 8.00
13,"COc1cc(Nc2cc(N)nc(C(F)F)n2)ncc1-c1cnn([C@@H]2CCOC2)c1 (single isomer, unassigned) [Compound 110, (R)-2-(difluoromethyl)-N4-(4-methoxy-5-(1-(tetrahydrofuran-3-yl)-1H-pyrazol-4-yl)pyridin-2-yl)pyrimidine-4,6-diamine or (S)-2-(difluoromethyl)-N4-(4-methoxy-5-(1-(tetrahydrofuran-3-yl)-1H-pyrazol-4-yl)pyridin-2-yl)pyrimidine-4,6-diamine]",> 8.00
14,"CN[C@@H](C)Cn1cc(-c2cnc(Nc3cc(N)nc(C(F)F)n3)cc2OC)cn1 (single isomer, unassigned) [Compound 117, (S)-2-(difluoromethyl)-N4-(4-methoxy-5-(1-(2-(methylamino)propyl)-1H-pyrazol-4-yl)pyridin-2-yl)pyrimidine-4,6-diamine or (R)-2-(difluoromethyl)-N4-(4-methoxy-5-(1-(2-(methylamino)propyl)-1H-pyrazol-4-yl)pyridin-2-yl)pyrimidine-4,6-diamine]",> 8.00
15,"CN[C@H](C)Cn1cc(-c2cnc(Nc3cc(N)nc(C(F)F)n3)cc2OC)cn1 (single isomer, unassigned) [Compound 118, (R)-2-(difluoromethyl)-N4-(4-methoxy-5-(1-(2-(methylamino)propyl)-1H-pyrazol-4-yl)pyridin-2-yl)pyrimidine-4,6-diamine or (S)-2-(difluoromethyl)-N4-(4-methoxy-5-(1-(2-(methylamino)propyl)-1H-pyrazol-4-yl)pyridin-2-yl)pyrimidine-4,6-diamine]",7.40 to 8.00
16,"COc1cc(Nc2cc(N)nc(C(F)F)n2)ncc1-c1cnn(C[C@H]2CCN2C)c1 (single isomer, unassigned) [Compound 138, (R)-2-(difluoromethyl)-N4-(4-methoxy-5-(1-((1-methylazetidin-2-yl)methyl)-1H-pyrazol-4-yl)pyridin-2-yl)pyrimidine-4,6-diamine or (S)-2-(difluoromethyl)-N4-(4-methoxy-5-(1-((1-methylazetidin-2-yl)methyl)-1H-pyrazol-4-yl)pyridin-2-yl)pyrimidine-4,6-diamine]",> 8.00
